Reference: US11840524B2, “4-substituted phenyl-1,3,5-triazine derivatives as modulators of TrK receptors” (ALZECURE PHARMA AB, priority 2018, dated 2023)

What was measured:
TrkB = biological target: T1, TrkB (Homo sapiens, UniProt Q16620); experiment: Cell-based Enzyme Fragment Complementation (EFC) assay, U2OS cells over-expressing TrkB; conditions: compound pre-mixed with ligand, final ligand concentration 10 ng/mL, 3 hours at room temperature, read-out: TrkB potency expressed as EC50
T1 construct: expressed in transfected cells; host or cells: U2OS
T1 sequence (Q16620 32-822): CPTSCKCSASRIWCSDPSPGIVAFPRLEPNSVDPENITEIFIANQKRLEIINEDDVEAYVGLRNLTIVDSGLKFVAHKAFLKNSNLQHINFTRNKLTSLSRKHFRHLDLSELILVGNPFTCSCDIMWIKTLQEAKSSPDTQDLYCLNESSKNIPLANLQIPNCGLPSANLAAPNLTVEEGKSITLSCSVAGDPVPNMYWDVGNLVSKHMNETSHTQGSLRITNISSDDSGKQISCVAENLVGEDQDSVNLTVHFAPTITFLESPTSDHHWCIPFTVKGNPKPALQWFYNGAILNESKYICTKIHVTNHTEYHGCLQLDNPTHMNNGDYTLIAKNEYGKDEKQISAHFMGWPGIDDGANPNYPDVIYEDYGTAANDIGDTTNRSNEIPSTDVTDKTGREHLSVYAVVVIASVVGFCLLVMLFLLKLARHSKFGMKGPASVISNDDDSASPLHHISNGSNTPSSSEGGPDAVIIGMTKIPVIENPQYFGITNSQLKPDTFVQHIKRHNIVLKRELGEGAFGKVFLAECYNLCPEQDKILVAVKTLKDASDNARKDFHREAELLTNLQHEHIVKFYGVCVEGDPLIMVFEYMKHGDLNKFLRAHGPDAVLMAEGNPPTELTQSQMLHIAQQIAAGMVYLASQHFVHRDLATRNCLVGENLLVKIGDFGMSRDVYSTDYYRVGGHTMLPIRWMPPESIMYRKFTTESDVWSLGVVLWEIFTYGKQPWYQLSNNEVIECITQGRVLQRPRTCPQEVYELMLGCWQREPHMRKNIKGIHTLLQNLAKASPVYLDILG
Source text: (§1) A high throughput cell-based screen has been used to identify positive modulators of TrkA, TrkB and TrkC. The screen involves the use of cell-based assay overexpressing TrkA, TrkB or TrkC. The purpose of the assay is to identify compounds that modulate neurotrophin signalling (Forsell et al 2012). The assay can be used in inhibitor mode using a high concentration of ligand, in modulator mode using an intermediate concentration and in agonist mode using a low concentration of ligand.
(§2) The assay uses Enzyme Fragment Complementation (EFC) technique, which is a proximity-based assay. Briefly, cells used in this assay over-express two fusion proteins, i.e. the receptor, which can be one of TrkA, TrkB or TrkC fused to a small peptide of beta-galactosidase and an adaptor protein, i.e. SHC1 (or any other Trk-adaptor protein) fused to the major part of beta-galactosidase. […] The proximity between the small activating peptide on the receptor and the major part of beta-galactosidase on the adaptor protein leads to an active beta-galactosidase enzyme. The activation of the receptor is quantified by measuring the amount of active beta-galactosidase by its conversion of a non-luminescent substrate into a luminescent product.
(§3) U2OS-cells, over-expressing TrkA or TrkB or TrkC, were plated in 96- or 384-well plates and incubated overnight. On the following day, test compound was pre-mixed with ligand (NGF) and the ligand-compound mixture is then added to the cells to yield a final ligand concentration of 10 ng/mL. After 3 hours of incubation at room temperature, the incubation is stopped by the addition of a beta-galactosidase substrate mixture containing detergents. The substrate mixture is incubated for 60 minutes at ambient temperature. The luminescence is thereafter read by the use of a plate reader.

TrkA = biological target: T2, TrkA (Homo sapiens, UniProt P04629); experiment: Cell-based Enzyme Fragment Complementation (EFC) assay, U2OS cells over-expressing TrkA; conditions: compound pre-mixed with ligand (NGF), final ligand concentration 10 ng/mL, 3 hours at room temperature, read-out: TrkA potency expressed as EC50
T2 construct: expressed in transfected cells; host or cells: U2OS
T2 sequence (P04629 33-796): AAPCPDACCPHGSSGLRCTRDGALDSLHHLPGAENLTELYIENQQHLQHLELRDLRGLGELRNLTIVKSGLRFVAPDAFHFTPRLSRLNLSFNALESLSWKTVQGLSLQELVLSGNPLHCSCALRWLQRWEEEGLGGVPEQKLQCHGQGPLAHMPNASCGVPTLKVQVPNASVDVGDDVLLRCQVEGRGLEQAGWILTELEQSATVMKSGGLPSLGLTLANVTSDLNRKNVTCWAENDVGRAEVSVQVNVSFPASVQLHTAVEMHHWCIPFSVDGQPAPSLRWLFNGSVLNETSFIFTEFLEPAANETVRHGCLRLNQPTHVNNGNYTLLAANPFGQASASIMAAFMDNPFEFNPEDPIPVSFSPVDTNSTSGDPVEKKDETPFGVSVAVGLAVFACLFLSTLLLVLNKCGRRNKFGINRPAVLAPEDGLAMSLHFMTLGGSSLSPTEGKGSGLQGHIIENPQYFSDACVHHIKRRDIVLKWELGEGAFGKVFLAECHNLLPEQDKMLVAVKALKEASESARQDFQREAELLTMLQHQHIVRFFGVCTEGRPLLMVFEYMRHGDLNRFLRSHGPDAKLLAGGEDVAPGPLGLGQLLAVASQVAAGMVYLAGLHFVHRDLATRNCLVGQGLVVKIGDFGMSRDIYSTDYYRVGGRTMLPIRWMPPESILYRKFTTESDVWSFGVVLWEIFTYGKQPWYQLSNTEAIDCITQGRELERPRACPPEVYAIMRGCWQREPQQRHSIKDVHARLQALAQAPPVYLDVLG
Source text: as §1, §2, §3

TrkC = biological target: T3, TrkC (Homo sapiens, UniProt Q16288); experiment: Cell-based Enzyme Fragment Complementation (EFC) assay, U2OS cells over-expressing TrkC; conditions: compound pre-mixed with ligand, final ligand concentration 10 ng/mL, 3 hours at room temperature, read-out: TrkC potency expressed as EC50
T3 construct: expressed in transfected cells; host or cells: U2OS
T3 sequence (Q16288 32-839): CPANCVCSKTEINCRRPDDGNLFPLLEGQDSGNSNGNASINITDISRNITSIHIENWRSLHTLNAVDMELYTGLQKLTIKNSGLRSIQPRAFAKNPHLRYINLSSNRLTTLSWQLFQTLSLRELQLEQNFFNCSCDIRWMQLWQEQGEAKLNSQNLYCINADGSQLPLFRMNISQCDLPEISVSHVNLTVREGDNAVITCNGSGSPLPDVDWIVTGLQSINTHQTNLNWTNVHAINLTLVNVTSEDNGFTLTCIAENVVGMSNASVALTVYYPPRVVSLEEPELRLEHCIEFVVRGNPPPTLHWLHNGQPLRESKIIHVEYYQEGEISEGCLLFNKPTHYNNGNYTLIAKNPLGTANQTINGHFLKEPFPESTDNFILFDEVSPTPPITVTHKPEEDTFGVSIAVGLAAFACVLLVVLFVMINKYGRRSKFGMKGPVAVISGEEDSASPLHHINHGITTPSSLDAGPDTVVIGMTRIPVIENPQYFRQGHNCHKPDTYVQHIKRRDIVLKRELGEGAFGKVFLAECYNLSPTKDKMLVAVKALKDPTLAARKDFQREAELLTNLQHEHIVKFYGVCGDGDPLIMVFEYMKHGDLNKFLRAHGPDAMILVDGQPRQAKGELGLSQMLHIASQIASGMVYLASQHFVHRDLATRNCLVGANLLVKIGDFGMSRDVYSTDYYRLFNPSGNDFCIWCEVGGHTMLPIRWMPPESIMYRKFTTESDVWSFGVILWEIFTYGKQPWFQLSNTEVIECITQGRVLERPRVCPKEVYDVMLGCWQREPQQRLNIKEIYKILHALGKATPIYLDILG
Source text: as §1, §2
U2OS-cells, over-expressing TrkA or TrkB or TrkC, were plated in 96- or 384-well plates and incubated overnight. […] The luminescence is thereafter read by the use of a plate reader.

[1] = tested on: ephrin type-B receptor 2 (EphB2); conditions: Suzuki et al., FEBS Open Bio 2016; cited from earlier work

Row | EC50 (TrkB) [nM] | EC50 (TrkA) [nM] | EC50 (TrkC) [nM] | Compound | inhibition of the binding of β-amyloid oligomers to EphB2 [1] [%]
1 | 170 | 190 | – | Cc1cccc(-n2c(=O)[nH]c(=O)n(-c3ccc(Oc4ccc(F)cc4)c(Cn4ccnc4)c3)c2=O)c1 [Example 8, 1-[4-(4-fluorophenoxy)-3-[(1H-imidazol-1-yl)methyl]phenyl]-3-(3-methylphenyl)-1,3,5-triazinane-2,4,6-trione] | –
2 | 12000 | 1670 | – | Cc1cccc(-n2c(=O)[nH]c(=O)n(-c3ccc(Oc4ccccc4)c(OCc4cnc[nH]4)c3)c2=O)c1 [Example 10, 1-{3-[(1H-imidazol-5-yl)methoxy]-4-phenoxyphenyl}-3-(3-methylphenyl)-1,3,5-triazinane-2,4,6-trione] | –
3 | 60 | 100 | – | Cc1cccc(-n2c(=O)[nH]c(=O)n(-c3ccc(Oc4ccccc4)c(Cn4cnc(F)c4)c3)c2=O)c1 [Example 12, 1-{3-[(4-fluoro-1H-imidazol-1-yl)methyl]-4-phenoxyphenyl}-3-(3-methylphenyl)-1,3,5-triazinane-2,4,6-trione] | –
4 | 270 | 380 | 200 | O=c1[nH]c(=O)n(-c2ccc(Oc3ccccc3)c(Cn3ccnc3)c2)c(=O)n1-c1ccccc1 [Example 2, 1-{3-[(1H-imidazol-1-yl)methyl]-4-phenoxyphenyl}-3-phenyl-1,3,5-triazinane-2,4,6-trione] | –
5 | 120 | 250 | – | Cc1cccc(-n2c(=O)[nH]c(=O)n(-c3ccc(Oc4ccccc4)c(OCc4ncc[nH]4)c3)c2=O)c1 [Example 9, 1-{3-[(1H-imidazol-2-yl)methoxy]-4-phenoxyphenyl}-3-(3-methylphenyl)-1,3,5-triazinane-2,4,6-trione] | –
6 | 450 | 720 | – | COc1ccc(-n2c(=O)[nH]c(=O)n(-c3ccc(Oc4ccccc4)c(Cn4ccnc4)c3)c2=O)cc1 [Example 7, 1-{3-[(1H-imidazol-1-yl)methyl]-4-phenoxyphenyl}-3-(4-methoxyphenyl)-1,3,5-triazinane-2,4,6-trione] | –
7 | 810 | 520 | – | O=c1[nH]c(=O)n(-c2ccc(Oc3ccccc3)c(Cn3cncn3)c2)c(=O)n1-c1ccccc1 [Example 3, 1-{4-phenoxy-3-[(1H-1,2,4-triazol-1-yl)methyl]phenyl}-3-phenyl-1,3,5-triazinane-2,4,6-trione] | –
8 | 140 | 220 | – | 1-{3-[(4-methyl-1H-imidazol-1-yl)methyl]-4-phenoxyphenyl}-3-(3-methylphenyl)-1,3,5-triazinane-2,4,6-trione+1-{3-[(5-methyl-1H-imidazol-1-yl)methyl]-4-phenoxyphenyl}-3-(3-methylphenyl)-1,3,5-triazinane-2,4,6-trione [Example 11] | –
9 | 90 | 120 | – | Cc1cccc(-n2c(=O)[nH]c(=O)n(-c3ccc(Oc4ccccc4)c(Cn4cc(F)cn4)c3)c2=O)c1 [Example 15, 1-{3-[(4-fluoro-1H-pyrazol-1-yl)methyl]-4-phenoxyphenyl}-3-(3-methylphenyl)-1,3,5-triazinane-2,4,6-trione] | –
10 | 2070 | 1100 | – | CCc1ccc(Oc2ccc(-n3c(=O)[nH]c(=O)n(C)c3=O)cc2Cn2cccn2)cc1 [Example 4, 1-[4-(4-ethylphenoxy)-3-[(1H-pyrazol-1-yl)methyl]phenyl]-3-methyl-1,3,5-triazinane-2,4,6-trione] | –
11 | 170 | 180 | – | CCn1cc(Cc2cc(-n3c(=O)[nH]c(=O)n(-c4ccccc4)c3=O)ccc2Oc2ccccc2)cn1 [Example 16, 1-{3-[(1-ethyl-1H-pyrazol-4-yl)methyl]-4-phenoxyphenyl}-3-phenyl-1,3,5-triazinane-2,4,6-trione] | –
12 | 180 | 180 | – | O=c1[nH]c(=O)n(-c2ccc(Oc3ccccc3)c(Cn3cc(F)cn3)c2)c(=O)n1-c1ccccc1 [Example 14, 1-{3-[(4-fluoro-1H-pyrazol-1-yl)methyl]-4-phenoxyphenyl}-3-phenyl-1,3,5-triazinane-2,4,6-trione] | –
13 | 470 | 650 | – | Cc1cccc(-n2c(=O)[nH]c(=O)n(-c3ccc(Oc4ccccc4)c(-n4cnc(C)c4)c3)c2=O)c1 [Example 13, 1-[3-(4-methyl-1H-imidazol-1-yl)-4-phenoxyphenyl]-3-(3-methylphenyl)-1,3,5-triazinane-2,4,6-trione] | –
14 | 31000 | 1320 | – | Cn1c(=O)[nH]c(=O)n(-c2ccc(-c3ccccc3)c(Cn3cccn3)c2)c1=O [Example 5, 1-methyl-3-{2-[(1H-pyrazol-1-yl)methyl]-[1,1′-biphenyl]-4-yl}-1,3,5-triazinane-2,4,6-trione] | –
15 | – | – | – | Cc1cc(-n2c(=O)[nH]c(=O)n(C)c2=O)ccc1Oc1ccc(SC(F)(F)F)cc1 [toltrazuril, 1-methyl-3-(3-methyl-4-{4-[(trifluoromethyl)sulfanyl]phenoxy}phenyl)-1,3,5-triazinane-2,4,6-trione] | 30
16 | 200 | 160 | 120 | O=c1[nH]c(=O)n(-c2ccc(Oc3ccccc3)c(Cn3cccn3)c2)c(=O)n1-c1ccccc1 [Example 1, 1-{4-phenoxy-3-[(1H-pyrazol-1-yl)methyl]phenyl}-3-phenyl-1,3,5-triazinane-2,4,6-trione] | –
17 | 200 | 160 | – | Cc1cccc(-n2c(=O)[nH]c(=O)n(-c3ccc(Oc4ccccc4)c(Cn4ccnc4)c3)c2=O)c1 [Example 6, 1-{3-[(1H-imidazol-1-yl)methyl]-4-phenoxyphenyl}-3-(3-methylphenyl)-1,3,5-triazinane-2,4,6-trione] | –
